Our source for the GI50 and TGI values is PubChem BioAssay (NCI).

Molecules are shown by their SMILES.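 Grown in 96-well plates, cells were treated for 48 hours with each compound at five concentrations. Insufficient inhibition: endpoint recorded as highest concentration tested. GI50 = concentration required for 50% inhibition of growth. TGI: concentration producing complete growth inhibition.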

Holding throughout (experiment): NCI tumour cell line growth inhibition, 48 h
For assay [1], the system named is ACHN renal.
Assay [2] deals with SF-539 CNS.
Assay [3] concerns HCC-2998 colon.
Assay [4] has as its system TK-10 renal.
Assay [5] concerns OVCAR-3 ovarian.
Assay [6] deals with EKVX NSCLC.
The test system of assay [7] is HOP-62 NSCLC.
Assay [8] concerns HL-60(TB) leukemia.

In the case of `O=C(CS(=O)c1nc2ccccc2nc1-c1ccccc1)Nc1ccc(Cl)cc1` (stereo unspecified), the GI50 is 21.4 µM in assay [1]; 14 µM in assay [2]; 28.6 µM in assay [3]; 27.8 µM in assay [4]; 21.5 µM in assay [5]; 29.5 µM in assay [6]. Further, in assay [7], the GI50 was 23.2 µM. Also, the TGI in assay [1] is 51.1 µM; in assay [2], over 100 µM; in assay [3] it was 84.9 µM; in assay [4] it was 82.7 µM; in assay [5], 51.2 µM; in assay [6] it was over 100 µM. The same compound returned a TGI in assay [7] of 71.8 µM.
As for `CCN(CC)CCNc1ccc(N=Nc2cnc3ccccc3c2)c2ccccc12`, the GI50 in assay [1] was 1.61 µM; in assay [2] it was 1.67 µM; in assay [8], 1.34 µM; in assay [3], 1.75 µM; in assay [4], 2.1 µM; in assay [5] it was 1.78 µM. In addition, the GI50 in assay [7] is 1.66 µM. The TGI in assay [1] is 3.15 µM; in assay [2], 3.07 µM; in assay [8] it was 2.92 µM; in assay [3] it was 3.16 µM; in assay [4], 3.87 µM; in assay [5] it was 3.43 µM. For the same compound, the TGI in assay [7] was found to be 3.02 µM.
For the compound `CCCCCCCCCCCCSC1=CC(=O)C=CC1=O`, the GI50 in assay [1] was 9.13 µM; in assay [2], 1.23 µM; in assay [8], 0.353 µM; in assay [3], 15.2 µM; in assay [4], 16.3 µM; in assay [5], 1.98 µM. The GI50 in assay [7] was 9.23 µM. The TGI in assay [1] was over 42.4 µM; in assay [2] it was 3.5 µM; in assay [8], 2.43 µM; in assay [3] it was over 50 µM; in assay [4], 37.4 µM; in assay [5], 7.91 µM. This compound gave a TGI in assay [7] of over 35 µM.
In the case of `COc1ccc2c(c1)C(=O)/C(=C/c1cccc(OCC(=O)c3ccc([N+](=O)[O-])cc3)c1)CO2`, the GI50 in assay [1] was 2.32 µM; in assay [2] it was 2.33 µM; in assay [8] it was 2.34 µM; in assay [4] it was 2.97 µM; in assay [5], 1.94 µM; in assay [6], 7.68 µM. Moreover, in assay [7], the GI50 is 2.13 µM. Further, the TGI is 6.41 µM in assay [1]; 6.12 µM in assay [2]; 12.8 µM in assay [8]; 7.49 µM in assay [4]; 3.72 µM in assay [5]; 21.9 µM in assay [6]. The compound also displayed a TGI in assay [7] of 5.35 µM.
With `C=C1C(=O)O[C@H]2[C@H]1CC/C(CNC(=O)C(C)c1ccc(CC(C)C)cc1)=C\CC[C@@]1(C)O[C@@H]21` (stereo partly specified), the GI50 in assay [1] is 1.45 µM; in assay [2] it was 1.58 µM; in assay [3], 1.83 µM; in assay [4], 1.66 µM; in assay [5], 1.54 µM; in assay [6] it was 1.67 µM. The GI50 in assay [7] is 3.07 µM. Besides, the TGI in assay [1] turned out to be 2.76 µM; in assay [2], 3.07 µM; in assay [3] it was 3.38 µM; in assay [4], 3.02 µM; in assay [5], 2.95 µM; in assay [6], 3.22 µM. Further, the TGI in assay [7] was found to be 12.2 µM.
Turning to `CCOC(=O)Nc1cc2c(c(N)n1)N=C(c1ccccc1)CN2`, the GI50 in assay [1], in assay [5] and in assay [6] was under 0.0001 µM throughout. Further, the TGI in assay [1] was 21.6 µM; in assay [3] it was 0.0445 µM; in assay [4], over 60.7 µM; in assay [5] it was under 0.0001 µM; in assay [6], 46.6 µM; in assay [7], 18.5 µM.
On to `CC(C)c1ccc(C(O)(C(=O)O)c2ccc(C(C)C)cc2)cc1`, for which the TGI was over 100 µM in assay [1]; over 100 µM in assay [2]; 99.4 µM in assay [8]; over 100 µM in assay [4]; 60.7 µM in assay [5]; over 100 µM in assay [6]. For the same compound, the TGI in assay [7] was over 100 µM.
Consider `NS(=O)(=O)c1ccc(-n2nc(-c3ccccc3)cc2-c2cc(O)ccc2O)cc1`, for which the GI50 in assay [1] is 89.8 µM; in assay [4] it was 35.9 µM; in assay [5], over 100 µM; in assay [6] it was over 100 µM; in assay [7] it was 90.8 µM. The TGI was over 100 µM in assay [1]; 95.2 µM in assay [4]; over 100 µM in assay [5]; over 100 µM in assay [6]; over 100 µM in assay [7].
`COc1ccc2[nH]cc(C3(c4c[nH]c5ccc(OC)cc45)C(=O)Nc4ccc(Cl)cc43)c2c1`: the GI50 in assay [1] is 3.71 µM; in assay [2], 4.39 µM; in assay [3], 3.26 µM; in assay [5], 2.99 µM; in assay [6] it was 2.16 µM; in assay [7], 5.18 µM. The TGI in assay [1] was 21.9 µM; in assay [2] it was over 100 µM; in assay [3], 11.4 µM; in assay [5], 8.5 µM; in assay [6] it was 11.9 µM; in assay [7], 21.3 µM.
Turning to `N#Cc1ccc(C(=O)c2cnn(-c3ccc(F)cc3)c2N)cc1`, the GI50 in assay [1], in assay [2], in assay [8], in assay [3], in assay [4] and in assay [5] was over 25 µM throughout. The GI50 in assay [7] was over 25 µM. In addition, the TGI in assay [1], in assay [2], in assay [8], in assay [3], in assay [4] and in assay [5] was over 25 µM each time. The compound also displayed a TGI in assay [7] of over 25 µM.
On to `CN(C)c1ccc2cc3c(cc2c1)Oc1ccccc1N3.[Cl][Zn][Cl]`, for which the GI50 was 1.64 µM in assay [1]; 3.68 µM in assay [2]; 2.61 µM in assay [8]; 16.5 µM in assay [3]; 6.2 µM in assay [4]; 1.5 µM in assay [5]. In assay [6], the GI50 was 7.01 µM. The TGI is 3.22 µM in assay [1]; 15.6 µM in assay [2]; 7.3 µM in assay [8]; 31.8 µM in assay [3]; 16.5 µM in assay [4]; 3 µM in assay [5]. Besides, the TGI in assay [6] turned out to be 28.5 µM.
Regarding `COc1ccc(-c2nsc3c2NC(=O)CC3c2cccc(F)c2)cc1` (stereo unspecified), the GI50 in assay [1] was 5.95 µM; in assay [2], 5.19 µM; in assay [8], 4.21 µM; in assay [3], 7.18 µM; in assay [4], 5.26 µM; in assay [5] it was 3.32 µM. Also, the GI50 in assay [7] is 8.79 µM. Further, the TGI in assay [1] was over 100 µM; in assay [2], over 100 µM; in assay [8], over 100 µM; in assay [3], over 100 µM; in assay [4], over 100 µM; in assay [5], 12.3 µM. The same compound came in with a TGI in assay [7] of over 100 µM.
As to `O=C(CCN1CCCC1)Nc1ccc2c(Nc3ccc(Br)cc3)c3ccccc3nc2c1`, the GI50 is 1.23 µM in assay [1]; 1.55 µM in assay [2]; 1.26 µM in assay [3]; 1.72 µM in assay [4]; 1.61 µM in assay [5]; 1.59 µM in assay [6]. The TGI stood at 2.48 µM in assay [1]; 2.95 µM in assay [2]; 2.73 µM in assay [3]; 3.37 µM in assay [4]; 3.11 µM in assay [5]; 3.05 µM in assay [6].
As to `O=C(O)C1C2C=CC(O2)C1C(=O)NCc1ccncc1` (stereo unspecified), the TGI in assay [1], in assay [2], in assay [8], in assay [4], in assay [5] and in assay [6] was over 100 µM in each case. For the same compound, in assay [7], the TGI was over 100 µM.
Turning to `COc1ccccc1-c1ccc2c(N)c(C(=O)c3ccc4c(c3)OCO4)sc2n1`, the GI50 in assay [1] was 4.07 µM; in assay [2], 4.94 µM; in assay [8] it was 4.83 µM; in assay [3], 12 µM; in assay [4] it was 12.8 µM; in assay [5] it was 5.18 µM. Also, in assay [7], the GI50 is 3.52 µM. The TGI in assay [1] was 13.5 µM; in assay [2], 17 µM; in assay [8] it was over 100 µM; in assay [3], 29.1 µM; in assay [4], 28.6 µM; in assay [5], 22 µM. Also, the TGI in assay [7] is 14.7 µM.
For `CCOP(=O)(OCC)C(NC(c1ccccc1)c1ccccc1)c1ccsc1` (stereo unspecified), the GI50 was 24 µM in assay [2]; 23 µM in assay [8]; 16.1 µM in assay [4]; 16.1 µM in assay [5]; 21.7 µM in assay [6]. Moreover, the TGI in assay [2] turned out to be 43.1 µM; in assay [8], 56.9 µM; in assay [4] it was 32.2 µM; in assay [5], 32.2 µM; in assay [6] it was 41.6 µM.
With `Cc1cc(C(=O)CC(Cl)=C(Cl)Cl)c(Cl)cc1Cl`, the GI50 in assay [1] is 18.1 µM; in assay [2] it was 13.1 µM; in assay [4], 15.9 µM; in assay [5], 21.4 µM; in assay [6] it was 19 µM; in assay [7], 21.2 µM. Moreover, the TGI in assay [1] is 39.4 µM; in assay [2] it was 29.9 µM; in assay [4] it was 32 µM; in assay [5], 54.1 µM; in assay [6], 47.7 µM; in assay [7], 44.1 µM.
Regarding `N#Cc1ccc(O)c(C2=NCC(c3ccc(-c4ccccc4)cc3)O2)c1` (stereo unspecified), the GI50 in assay [1] is 0.418 µM; in assay [2] it was 0.517 µM; in assay [8], 0.416 µM; in assay [3] it was 0.628 µM; in assay [5], 0.368 µM; in assay [6], 0.342 µM. Besides, the GI50 in assay [7] is 0.41 µM. Further, the TGI in assay [1] came out at 12.4 µM; in assay [2] it was 11.4 µM; in assay [8], 3.73 µM; in assay [3], 21.6 µM; in assay [5], 11.7 µM; in assay [6] it was 10.4 µM. Further, the TGI in assay [7] was determined as 10.9 µM.
`CN1CCN(C(=O)[C@@]2(C)CC[C@]3(C)CC[C@]4(C)C(=CC[C@@H]5[C@@]6(C)CC[C@H](OC(=O)c7cccnc7)C(C)(C)[C@@H]6CC[C@]54C)[C@@H]3C2)CC1`: the GI50 in assay [1] was 1.88 µM; in assay [2] it was 1.6 µM; in assay [8] it was 1.44 µM; in assay [3] it was 1.81 µM; in assay [4], 1.79 µM; in assay [5] it was 1.74 µM. For the same compound, in assay [6], the GI50 was 1.74 µM. Moreover, the TGI was determined as 3.39 µM in assay [1]; 3.06 µM in assay [2]; 3.36 µM in assay [8]; 3.33 µM in assay [3]; 3.31 µM in assay [4]; 3.29 µM in assay [5]. This compound showed a TGI in assay [6] of 3.86 µM.
Turning to `O=C(CO)CC(=O)C(=O)Nc1cccc(C(F)(F)F)c1`, the TGI in assay [1], in assay [2], in assay [8], in assay [3], in assay [4] and in assay [5] was over 100 µM throughout. For the same compound, the TGI in assay [7] is over 100 µM.
For `O=C(O)CC(S)C(=O)O.[Li+].[Sb]` (stereo unspecified), the GI50 in assay [1] was over 100 µM; in assay [8], over 100 µM; in assay [4] it was over 100 µM; in assay [5], over 100 µM; in assay [6] it was over 100 µM; in assay [7], 44.2 µM. Further, the TGI in assay [1], in assay [8], in assay [4], in assay [5], in assay [6] and in assay [7] was over 100 µM each time.
For `Cc1ccc2c(c1)C(=O)/C(=C/c1cccc(OCC(=O)c3ccc(Cl)cc3)c1)CS2`, the GI50 was 8.72 µM in assay [1]; 17.8 µM in assay [2]; 2.95 µM in assay [8]; 14.1 µM in assay [4]; 5.58 µM in assay [5]; 8.65 µM in assay [6]. In addition, in assay [7], the GI50 is 13 µM. Besides, the TGI in assay [1] was 21.2 µM; in assay [2] it was 36.6 µM; in assay [8], 13.4 µM; in assay [4], 39.5 µM; in assay [5] it was 18 µM; in assay [6] it was 40.8 µM. Also, the TGI in assay [7] came to 30.6 µM.
